In brackets after ≈: the same amount, converted by molar mass.
What was measured:
[1] = system: replicating Mycobacterium tuberculosis; assay: MIC, microplate Alamar blue assay (MABA), 8 day; type: cell-based; details: 192 h, read-out: MIC MABA (aerobic)
in vivo = details: mouse, po, 40 mg/kg
[2] = system: M. tuberculosis bacteria in the non-replicating state; assay: microbe, parasite or virus in culture; type: cell-based; details: Mycobacterium tuberculosis, 264 h, low oxygen, 11 day, read-out: MIC LORA (anaerobic)
M. tuberculosis Erdman [3] = type: in vivo, BALB/c mice; details: for In vivo efficacy vs PA-824, Chronic: mouse, po, 100 mg/kg
M. tuberculosis Erdman [4] = system: M. tuberculosis Erdman; parameters: species or system BALB/c mice; details: mouse, po, 100 mg/kg
[5] = CD-1 mice, oral, 40 mg/kg; for t½ (h) plasma: suspension in 0.5% carboxymethylcellulose/0.08% Tween 80

Compound	MIC [1] [µM]	AUC (in vivo) [µg·h/mL]	MIC [2] [µM]	log reduction in CFU (M. tuberculosis Erdman [3]; chronic assay, lungs, vs vehicle, oral 100 mg/kg)	In vivo efficacy vs PA-824, Chronic (M. tuberculosis Erdman [3])	In vivo efficacy vs PA-824, Acute (M. tuberculosis Erdman [4])	Kp (in vivo)	Cmax plasma [5] [ng/mL]	t½ (h) plasma [5] [h]
O=[N+]([O-])c1cn2c(n1)OC[C@@H](OCc1ccc(OC(F)(F)F)cc1)C2 [PA-824, reference compound]	0.5 (≈ 0.18 µg/mL)	296	2.6 (≈ 0.934 µg/mL)	~ 2 log	1.0	1.0			
O=[N+]([O-])c1cn2c(n1)OC[C@@H](OCc1ccc(-c3ccc(OC(F)(F)F)cc3Cl)cc1)C2 [compound 1, (6S)-6-{[2'-Chloro-4'-(trifluoromethoxy)[1,1'-biphenyl]-4-yl]methoxy}-2-nitro-6,7-dihydro-5H-imidazo[2,1-b][1,3]oxazine]	0.04 (≈ 0.0188 µg/mL)	3360	0.78 (≈ 0.366 µg/mL)		2.1	23			
O=[N+]([O-])c1cn2c(n1)OC[C@@H](OCc1ccc(-c3ccc(OC(F)(F)F)c(F)c3)cc1)C2 [compound 2, (6S)-6-{[3'-Fluoro-4'-(trifluoromethoxy)[1,1'-biphenyl]-4-yl]methoxy}-2-nitro-6,7-dihydro-5H-imidazo[2,1-b][1,3]oxazine]	0.03 (≈ 0.0136 µg/mL)	> 513	0.34 (≈ 0.154 µg/mL)			419	> 1		
O=[N+]([O-])c1cn2c(n1)OC[C@@H](OCc1ccc(-c3ccc(OC(F)(F)F)cc3)cc1)C2 [compound 3, (6S)-2-Nitro-6-{[4'-(trifluoromethoxy)[1,1'-biphenyl]-4-yl]methoxy}-6,7-dihydro-5H-imidazo[2,1-b][1,3]oxazine]	0.035 (≈ 0.0152 µg/mL)	218	1.3 (≈ 0.566 µg/mL)		12	>205			
O=[N+]([O-])c1cn2c(n1)OC[C@@H](OCc1cnc(-c3ccc(OC(F)(F)F)cc3)cn1)C2 [compound 4, (6S)-2-nitro-6-({5-[4-(trifluoromethoxy)phenyl]-2-pyrazinyl}methoxy)-6,7-dihydro-5H-imidazo[2,1-b][1,3]oxazine]	0.023 (≈ 0.0101 µg/mL)	> 324	1 (≈ 0.437 µg/mL)			167		9600	7.2
O=[N+]([O-])c1cn2c(n1)OC[C@@H](OCc1ccc(-c3ccc(F)cc3)nc1)C2 [compound 5, (6S)-6-{[6-(4-Fluorophenyl)-3-pyridinyl]methoxy}-2-nitro-6,7-dihydro-5H-imidazo[2,1-b][1,3]oxazine]	0.06 (≈ 0.0222 µg/mL)	136	2.9 (≈ 1.07 µg/mL)		20	7.8		5300	2.7
O=[N+]([O-])c1cn2c(n1)OC[C@@H](OCc1ccc(-c3ccc(OC(F)(F)F)cc3)nc1)C2 [compound 6, (6S)-2-Nitro-6-({6-[4-(trifluoromethoxy)phenyl]-3-pyridinyl}methoxy)-6,7-dihydro-5H-imidazo[2,1-b][1,3]oxazine]	0.05 (≈ 0.0218 µg/mL)	81	0.54 (≈ 0.236 µg/mL)		15	>89			24
O=[N+]([O-])c1cn2c(n1)OC[C@@H](OCc1ccc(-c3ccc(C(F)(F)F)nc3)cc1)C2 [compound 9, (6S)-2-Nitro-6-({4-[6-(trifluoromethyl)-3-pyridinyl]benzyl}oxy)-6,7-dihydro-5H-imidazo[2,1-b][1,3]oxazine]	0.03 (≈ 0.0126 µg/mL)	414	2.1 (≈ 0.883 µg/mL)		4.6	15			
Cn1nc(-c2ccc(OC(F)(F)F)cc2)cc1CO[C@@H]1COc2nc([N+](=O)[O-])cn2C1 [compound 11]	0.06 (≈ 0.0264 µg/mL)	92.4	0.58 (≈ 0.255 µg/mL)		0.9	12			
O=[N+]([O-])c1cn2c(n1)OC[C@@H](Oc1ccc(-c3ccc(OC(F)(F)F)cc3)cc1)C2 [compound 13, (6S)-2-Nitro-6-{[4'-(trifluoromethoxy)[1,1'-biphenyl]-4-yl]oxy}-6,7-dihydro-5H-imidazo[2,1-b][1,3]oxazine]	0.05 (≈ 0.0211 µg/mL)	347	1.3 (≈ 0.548 µg/mL)			8.1		1860	
O=[N+]([O-])c1cn2c(n1)OC[C@@H](OCc1ccc(-c3ccc(C(F)(F)F)cn3)cc1F)C2 [compound 14, (6S)-6-({2-Fluoro-4-[5-(trifluoromethyl)-2-pyridinyl]benzyl}oxy)-2-nitro-6,7-dihydro-5H-imidazo[2,1-b][1,3]oxazine]	0.055 (≈ 0.0241 µg/mL)	148	2.3 (≈ 1.01 µg/mL)			52			
O=[N+]([O-])c1cn2c(n1)OC[C@@H](OCc1ccc(-c3ccc(OC(F)(F)F)cc3)c(F)c1)C2 [compound 15, (6S)-6-{[2-Fluoro-4'-(trifluoromethoxy)[1,1'-biphenyl]-4-yl]methoxy}-2-nitro-6,7-dihydro-5H-imidazo[2,1-b][1,3]oxazine]	0.055 (≈ 0.0249 µg/mL)		0.51 (≈ 0.231 µg/mL)			>933			
O=[N+]([O-])c1cn2c(n1)OC[C@@H](OCc1cnc(-c3ccc(OC(F)(F)F)cc3)nc1)C2 [compound 16]	0.027 (≈ 0.0118 µg/mL)	131	1.8 (≈ 0.787 µg/mL)			>1120			
O=[N+]([O-])c1cn2c(n1)OC[C@@H](OCc1ccc(C#Cc3ccc(OC(F)(F)F)cc3)cn1)C2 [compound 18, (6S)-2-Nitro-6-[(5-{[4-(trifluoromethoxy)phenyl]ethynyl}-2-pyridinyl)methoxy]-6,7-dihydro-5H-imidazo[2,1-b][1,3]oxazine]	0.02 (≈ 0.00921 µg/mL)	235	1.4 (≈ 0.645 µg/mL)			>933			
O=[N+]([O-])c1cn2c(n1)OC[C@@H](OC/C=C/c1ccc(-c3ccc(OC(F)(F)F)cc3)cc1)C2 [compound 19, (6S)-2-Nitro-6-({(2E)-3-[4'-(trifluoromethoxy)[1,1'-biphenyl]-4-yl]-2-propenyl}oxy)-6,7-dihydro-5H-imidazo[2,1-b][1,3]oxazine]	0.063 (≈ 0.0291 µg/mL)		> 64						
O=C(O[C@@H]1COc2nc([N+](=O)[O-])cn2C1)N1CCN(c2ccc(OC(F)(F)F)cc2)CC1 [compound 20]	0.13 (≈ 0.0595 µg/mL)	169	1.1 (≈ 0.503 µg/mL)			5.2		2500	10.5
O=[N+]([O-])c1cn2c(n1)OC[C@@H](OCc1ccc(-c3ccc(OC(F)(F)F)c(F)c3)nc1)C2 [compound 21, (6S)-6-({6-[3-Fluoro-4-(trifluoromethoxy)phenyl]-3-pyridinyl}methoxy)-2-nitro-6,7-dihydro-5H-imidazo[2,1-b][1,3]oxazine]	0.025 (≈ 0.0114 µg/mL)	251	0.93 (≈ 0.423 µg/mL)			>840		7000	
O=[N+]([O-])c1cn2c(n1)OC[C@@H](OCc1ccc(-c3ccc(OC(F)(F)F)c(F)c3)cn1)C2 [compound 22, (6S)-6-({5-[3-Fluoro-4-(trifluoromethoxy)phenyl]-2-pyridinyl}methoxy)-2-nitro-6,7-dihydro-5H-imidazo[2,1-b][1,3]oxazine]	0.05 (≈ 0.0227 µg/mL)	155	1.3 (≈ 0.591 µg/mL)			233		7600	8.4
O=[N+]([O-])c1cn2c(n1)OC[C@@H](OCc1ccc(-c3ccc(C(F)(F)F)nc3)cc1F)C2 [compound 23, (6S)-6-({2-Fluoro-4-[6-(trifluoromethyl)-3-pyridinyl]benzyl}oxy)-2-nitro-6,7-dihydro-5H-imidazo[2,1-b][1,3]oxazine]	0.13 (≈ 0.057 µg/mL)	55.4	0.68 (≈ 0.298 µg/mL)			8.8			
O=[N+]([O-])c1cn2c(n1)OC[C@@H](OCc1ccc(-c3ccc(OC(F)(F)F)cc3)nn1)C2 [compound 24]	0.075 (≈ 0.0328 µg/mL)	93.9	1.7 (≈ 0.743 µg/mL)			11			2.9
O=[N+]([O-])c1cn2c(n1)OC[C@@H](OCc1ccc(-c3ccc(F)cn3)cc1)C2 [compound 26, (6S)-6-{[4-(5-Fluoro-2-pyridinyl)benzyl]oxy}-2-nitro-6,7-dihydro-5H-imidazo[2,1-b][1,3]oxazine]	0.035 (≈ 0.013 µg/mL)		1.3 (≈ 0.481 µg/mL)						
O=[N+]([O-])c1cn2c(n1)OC[C@@H](OCc1cnn(-c3ccc(OC(F)(F)F)cc3)c1)C2 [compound 27]	0.15 (≈ 0.0638 µg/mL)		1.8 (≈ 0.766 µg/mL)						
O=[N+]([O-])c1cn2c(n1)OC[C@@H](OCc1ccc(-c3ccc(OC(F)(F)F)c(Cl)c3)nc1)C2 [compound 28, (6S)-6-({6-[3-Chloro-4-(trifluoromethoxy)phenyl]-3-pyridinyl}methoxy)-2-nitro-6,7-dihydro-5H-imidazo[2,1-b][1,3]oxazine]	0.017 (≈ 0.008 µg/mL)	284	1 (≈ 0.471 µg/mL)			>933			
O=[N+]([O-])c1cn2c(n1)OC[C@@H](OCc1ncc(-c3ccc(OC(F)(F)F)cc3)cn1)C2 [compound 29]	0.11 (≈ 0.0481 µg/mL)		1.9 (≈ 0.831 µg/mL)						
O=[N+]([O-])c1cn2c(n1)OC[C@@H](OCc1ccc(C#Cc3ccc(OC(F)(F)F)cc3)cc1)C2 [compound 32, (6S)-2-Nitro-6-[(4-{[4-(trifluoromethoxy)phenyl]ethynyl}benzyl)oxy]-6,7-dihydro-5H-imidazo[2,1-b][1,3]oxazine]	0.017 (≈ 0.00781 µg/mL)		> 128						
O=[N+]([O-])c1cn2c(n1)OC[C@@H](OCc1ccc(C#Cc3ccc(OC(F)(F)F)cc3)nc1)C2 [compound 33, (6S)-2-Nitro-6-[(6-{[4-(trifluoromethoxy)phenyl]ethynyl}-3-pyridinyl)methoxy]-6,7-dihydro-5H-imidazo[2,1-b][1,3]oxazine]	0.02 (≈ 0.00921 µg/mL)		0.94 (≈ 0.433 µg/mL)						

Source: patent EP2459571B1, “NITROIMIDAZOOXAZINES AND THEIR USES IN ANTI-TUBERCULAR THERAPY” (priority 2009, dated 2011)
